Experimental data taken from patent publication US20260166128A1, “HUMAN AMYLIN ANALOG, AND DERIVATIVE THEREOF AND USE THEREOF” (priority 2022, published 2026).
Numbered stars: 1 amine (or outer) side, 2 acyl side, 3 side chain; on linkers, the order of the positions; unused ones are H or OH. Bridge positions count the residues as written; N and C are the ends. Square brackets hold non-standard residues; d marks the D form. Side chains are listed from the residue outwards. Peptide text beside a SMILES is read from it. * marks the point of attachment. C20 diacid = O=C(O)CCCCCCCCCCCCCCCCCCC(=O)*; C18 diacid = O=C(O)CCCCCCCCCCCCCCCCC(=O)*; γGlu = O=C(O)[C@H](CCC(=O)[*:2])N[*:1]; Hyp = O=C(O)[C@@H]1C[C@@H](O)CN1; AEEA = NCCOCCOCC(=O)O

Assays:
human amylin receptor = molecular target: T1, human amylin receptor (Homo sapiens, UniProt O60896+P30988); experiment: Luciferase assay of amylin derivatives in amylin receptor/CRE-luc CHO cell line; type: cell-based; conditions: CHO-K1/Ga15/AMY3 CRE-luc cells, 24 hours incubation, F12 medium containing 10% FBS; read-out: EC50
T1 construct: host or cells: CHO-K1/Ga15/AMY3 cells, further stably transfected with a CRE-luciferase plasmid
T1 sequence (P30988 25-474): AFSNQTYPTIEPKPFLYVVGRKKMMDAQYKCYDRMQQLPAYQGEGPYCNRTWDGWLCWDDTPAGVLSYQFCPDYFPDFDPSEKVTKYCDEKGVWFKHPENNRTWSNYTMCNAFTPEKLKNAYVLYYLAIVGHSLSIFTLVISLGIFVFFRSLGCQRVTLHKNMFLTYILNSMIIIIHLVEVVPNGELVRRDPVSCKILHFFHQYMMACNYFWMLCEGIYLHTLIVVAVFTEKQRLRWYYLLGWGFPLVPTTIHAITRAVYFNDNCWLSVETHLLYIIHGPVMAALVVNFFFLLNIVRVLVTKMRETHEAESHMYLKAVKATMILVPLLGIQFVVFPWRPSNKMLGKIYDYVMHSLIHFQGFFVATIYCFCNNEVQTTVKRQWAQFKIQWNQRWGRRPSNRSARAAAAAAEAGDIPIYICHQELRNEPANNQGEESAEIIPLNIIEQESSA
T1 sequence (O60896 24-148 partner): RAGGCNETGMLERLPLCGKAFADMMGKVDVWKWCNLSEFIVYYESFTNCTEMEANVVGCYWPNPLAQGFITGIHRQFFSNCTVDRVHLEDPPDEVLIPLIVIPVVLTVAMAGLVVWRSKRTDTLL
Experimental: The experiment was intended to detect the activity or efficacy of the amylin derivatives on a human amylin receptor in vitro by luciferase assay.
50 μL of growth medium (F12 medium containing 10% FBS) was added into each well of a white 96-well plate, and the stably transfected amylin/CRE-lue CHO cells were inoculated into the white 96-well plate at a density of about 20,000 cells/well for activity determination.

[1] = Weight loss efficacy of derivatives in SD rats (Example 5); type: in vivo, SD (Sprague Dawley) rats; conditions: experimental group B, subcutaneous, 30 nmol/kg
Description: SD (Sprague Dawley) rats weighing 200 g to 250 g were selected for this experimental study. Before the experiment, the rats arrived for at least 10 days to 14 days to adapt to the experimental environment. During this period, the rats were fed for two weeks in a reversed light/dark stage (meaning that the light was turned off during the day and turned on during the night) after arrival, and were fed separately in the first week of arrival to ensure accurate data and high test sensitivity, and the rats were free to obtain food and water during the whole adaptation period and experimental period. There were an experimental group [NT]5 and A6, and an experimental group B: B1, B2, B3, B4 and B5, with 5 to 8 rats in each treatment group of the derivative, and the rats in each group were subcutaneously administered with a derivative or a solvent by a dosage of 30 nmol/kg. The administration time of each group was recorded. After administration, the rats were put back into their cages in which the rats could get food and water. Food consumption and weight changes of the rats were recorded every 24 hours by online recording or manual recording. Weight and food intake changes of the SD rats in each group were as shown in FIG. 2A to FIG. 2D, Table 9 and Table 10.

[2] = type: physicochemical
Experimental: The penicillin bottle after covering was placed in a stability test box at 40° C. Before testing, a sample was centrifuged at 10,000 rpm and 4° C. for 3 minutes, and a supernatant was taken and added into a liquid-phase sample injection bottle. The sample was detected by the liquid phase method in Example 3.

[3] = Freeze-thaw stability of derivatives (freeze-thaw yield by liquid chromatography); type: physicochemical; conditions: for Dissolution property: appearance after dissolution at 0.2 mg/ml in 20 mM phosphate buffer solution (PB) (pH 7.0); for Freeze storage property: appearance after overnight storage at −20° C. and thawing to room temperature, 0.2 mg/ml in 20 mM PB (pH 7.0); for Freeze storage yield: concentration of polypeptide after freezing and thawing / concentration before, by liquid chromatography, −20° C. overnight
Outline: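 Freeze-thaw yield is the ratio of peptide concentration after versus before one overnight −20° C freeze and room-temperature thaw, both quantified by RP-HPLC of supernatant after centrifugation. Samples were 0.2 mg/ml freeze-dried derivative in 20 mM PB, pH 7.0.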

EC50 (human amylin receptor)	Dissolution property [3]	Freeze storage property [3]	Freeze storage yield [3]	SMILES	Weight change rate at 48th hour [1]	thermal stability [2]
0.026 nM	–	–	–	CC[C@H](C)[C@H](NC(=O)[C@@H]1CCCN1C(=O)[C@H](CCCNC(=N)N)NC(=O)[C@H](CC(C)C)NC(=O)[C@H](CC(N)=O)NC(=O)[C@H](CC(N)=O)NC(=O)[C@H](CO)NC(=O)[C@H](CO)NC(=O)[C@H](Cc1c[nH]cn1)NC(=O)[C@H](CCCNC(=N)N)NC(=O)[C@H](CC(C)C)NC(=O)[C@H](Cc1ccccc1)NC(=O)[C@H](CC(=O)O)NC(=O)[C@H](C)NC(=O)[C@H](CC(C)C)NC(=O)[C@H](CCCNC(=N)N)NC(=O)[C@H](CCC(N)=O)NC(=O)[C@@H](NC(=O)[C@H](C)NC(=O)[C@@H]1CSSC[C@H](NC(=O)[C@H](CCCCN)NC(=O)CC[C@H](NC(=O)CCCCCCCCCCCCCCCCCCC(=O)O)C(=O)O)C(=O)N[C@@H](CC(N)=O)C(=O)N[C@@H]([C@@H](C)O)C(=O)N[C@@H](C)C(=O)N[C@@H]([C@@H](C)O)C(=O)N1)[C@@H](C)O)C(=O)N[C@@H](CC(C)C)C(=O)N1CCC[C@H]1C(=O)N1CCC[C@H]1C(=O)N[C@H](C(=O)N[C@@H](CC(N)=O)C(=O)N[C@H](C(=O)NCC(=O)N[C@@H](CO)C(=O)N[C@@H](CC(N)=O)C(=O)N[C@H](C(=O)N1CCC[C@H]1C(N)=O)[C@@H](C)O)C(C)C)[C@@H](C)O [PD161] ({C20 diacid-γGlu}-KCNTATCATQRLADFLRHSSNNLRPILPPTNVGSNTP-NH2; disulfide 2-7 (inferred))	−7.81	–
0.022 nM	–	–	–	CC[C@H](C)[C@H](NC(=O)[C@@H]1CCCN1C(=O)[C@H](CCCNC(=N)N)NC(=O)[C@H](CC(C)C)NC(=O)[C@H](CC(N)=O)NC(=O)[C@H](CC(N)=O)NC(=O)[C@H](CO)NC(=O)[C@H](CO)NC(=O)[C@H](Cc1c[nH]cn1)NC(=O)[C@H](CCCNC(=N)N)NC(=O)[C@H](CC(C)C)NC(=O)[C@H](Cc1ccccc1)NC(=O)[C@H](CC(=O)O)NC(=O)[C@H](C)NC(=O)[C@H](CC(C)C)NC(=O)[C@H](CCCNC(=N)N)NC(=O)[C@H](CCC(N)=O)NC(=O)[C@@H](NC(=O)[C@H](C)NC(=O)[C@@H]1CSSC[C@H](NC(=O)[C@H](CCCCN)NC(=O)CC[C@H](NC(=O)CCCCCCCCCCCCCCCCCCC(=O)O)C(=O)O)C(=O)N[C@@H](CC(N)=O)C(=O)N[C@@H]([C@@H](C)O)C(=O)N[C@@H](C)C(=O)N[C@@H]([C@@H](C)O)C(=O)N1)[C@@H](C)O)C(=O)N[C@@H](CC(C)C)C(=O)N1CCC[C@H]1C(=O)N1CCC[C@H]1C(=O)N[C@H](C(=O)N[C@@H](CC(N)=O)C(=O)N[C@H](C(=O)NCC(=O)N[C@@H](CO)C(=O)N[C@@H](CC(N)=O)C(=O)N[C@H](C(=O)N1C[C@H](O)C[C@H]1C(N)=O)[C@@H](C)O)C(C)C)[C@@H](C)O [PD158] ({C20 diacid-γGlu}-KCNTATCATQRLADFLRHSSNNLRPILPPTNVGSNT[Hyp]-NH2; disulfide 2-7 (inferred))	−8.37	–
0.038 nM	–	–	–	CC[C@H](C)[C@H](NC(=O)[C@@H]1CCCN1C(=O)CNC(=O)[C@H](CC(C)C)NC(=O)[C@H](CC(N)=O)NC(=O)[C@H](CC(N)=O)NC(=O)[C@H](CO)NC(=O)[C@H](CO)NC(=O)[C@H](Cc1c[nH]cn1)NC(=O)[C@H](CCCNC(=N)N)NC(=O)[C@H](CC(C)C)NC(=O)[C@H](Cc1ccccc1)NC(=O)[C@H](CC(=O)O)NC(=O)[C@H](C)NC(=O)[C@H](CC(C)C)NC(=O)[C@H](CCCNC(=N)N)NC(=O)[C@H](CCC(N)=O)NC(=O)[C@@H](NC(=O)[C@H](C)NC(=O)[C@@H]1CSSC[C@H](NC(=O)[C@@H](N)CCCCNC(=O)CC[C@H](NC(=O)CCCCCCCCCCCCCCCCCCC(=O)O)C(=O)O)C(=O)N[C@@H](CC(N)=O)C(=O)N[C@@H]([C@@H](C)O)C(=O)N[C@@H](C)C(=O)N[C@@H]([C@@H](C)O)C(=O)N1)[C@@H](C)O)C(=O)N[C@@H](CC(C)C)C(=O)N1CCC[C@H]1C(=O)N1CCC[C@H]1C(=O)N[C@H](C(=O)N[C@@H](CC(N)=O)C(=O)N[C@H](C(=O)NCC(=O)N[C@@H](CO)C(=O)N[C@@H](CC(N)=O)C(=O)N[C@H](C(=O)N1C[C@H](O)C[C@H]1C(N)=O)[C@@H](C)O)C(C)C)[C@@H](C)O [PD070] (H-K([γGlu-C20 diacid])CNTATCATQRLADFLRHSSNNLGPILPPTNVGSNT[Hyp]-NH2; disulfide 2-7)	–	extremely low decrease percentage of protein concentration
0.024 nM	Clear	Clear	103.04%	CC[C@H](C)[C@H](NC(=O)[C@@H]1CCCN1C(=O)CNC(=O)[C@H](CC(C)C)NC(=O)[C@H](CC(N)=O)NC(=O)[C@H](CC(N)=O)NC(=O)[C@H](CO)NC(=O)[C@H](CCCCNC(=O)COCCOCCNC(=O)CC[C@H](NC(=O)CCCCCCCCCCCCCCCCC(=O)O)C(=O)O)NC(=O)[C@H](Cc1c[nH]cn1)NC(=O)[C@H](CCCNC(=N)N)NC(=O)[C@H](CC(C)C)NC(=O)[C@H](Cc1ccccc1)NC(=O)[C@H](CC(=O)O)NC(=O)[C@H](C)NC(=O)[C@H](CC(C)C)NC(=O)[C@H](CCCNC(=N)N)NC(=O)[C@H](CCC(N)=O)NC(=O)[C@@H](NC(=O)[C@H](C)NC(=O)[C@@H]1CSSC[C@H](NC(=O)[C@@H](N)CCCNC(=N)N)C(=O)N[C@@H](CC(N)=O)C(=O)N[C@@H]([C@@H](C)O)C(=O)N[C@@H](C)C(=O)N[C@@H]([C@@H](C)O)C(=O)N1)[C@@H](C)O)C(=O)N[C@@H](CC(C)C)C(=O)N1CCC[C@H]1C(=O)N1CCC[C@H]1C(=O)N[C@H](C(=O)N[C@@H](CC(N)=O)C(=O)N[C@H](C(=O)NCC(=O)N[C@@H](CO)C(=O)N[C@@H](CC(N)=O)C(=O)N[C@H](C(=O)N1C[C@H](O)C[C@H]1C(N)=O)[C@@H](C)O)C(C)C)[C@@H](C)O [PD119] (H-RCNTATCATQRLADFLRHK([AEEA-γGlu-C18 diacid])SNNLGPILPPTNVGSNT[Hyp]-NH2; disulfide 2-7 (inferred); N-terminus assumed)	–	–
0.098 nM	Clear	Clear	99.66%	CC[C@H](C)[C@H](NC(=O)[C@@H]1CCCN1C(=O)[C@H](CCCCNC(=O)CC[C@H](NC(=O)CCCCCCCCCCCCCCCCCCC(=O)O)C(=O)O)NC(=O)[C@H](CC(C)C)NC(=O)[C@H](CC(N)=O)NC(=O)[C@H](CC(N)=O)NC(=O)[C@H](CO)NC(=O)[C@H](CO)NC(=O)[C@H](Cc1c[nH]cn1)NC(=O)[C@H](CCCNC(=N)N)NC(=O)[C@H](CC(C)C)NC(=O)[C@H](Cc1ccccc1)NC(=O)[C@H](CC(=O)O)NC(=O)[C@H](C)NC(=O)[C@H](CC(C)C)NC(=O)[C@H](CCCNC(=N)N)NC(=O)[C@H](CCC(N)=O)NC(=O)[C@@H](NC(=O)[C@H](C)NC(=O)[C@@H]1CSSC[C@H](N)C(=O)N[C@@H](CC(N)=O)C(=O)N[C@@H]([C@@H](C)O)C(=O)N[C@@H](C)C(=O)N[C@@H]([C@@H](C)O)C(=O)N1)[C@@H](C)O)C(=O)N[C@@H](CC(C)C)C(=O)N1CCC[C@H]1C(=O)N1CCC[C@H]1C(=O)N[C@H](C(=O)N[C@@H](CC(N)=O)C(=O)N[C@H](C(=O)NCC(=O)N[C@@H](CO)C(=O)N[C@@H](CC(N)=O)C(=O)N[C@H](C(=O)N1CCC[C@H]1C(N)=O)[C@@H](C)O)C(C)C)[C@@H](C)O [PD050] (H-CNTATCATQRLADFLRHSSNNLK([γGlu-C20 diacid])PILPPTNVGSNTP-NH2; disulfide 1-6 (inferred))	–	–
